Assay results published in USRE37781E1, “Substituted cyclic carbonyls and derivatives thereof useful as retroviral protease inhibitors” (DuPont Pharmaceuticals Company, priority 1991, dated 2002).
Where two headings read alike, the source gives them in different places.

Key:
[1] = target: single-chain tethered dimer of HIV protease (Human immunodeficiency virus 1, UniProt P04585); assay: biochemical; format: biochemical; parameters: fused on or other part: A second copy of the same protease unit is joined to the first by a short peptide tether, giving one polypeptide
Procedure: HIV Protease Inhibition Assay—HPLC Method
Active protease was prepared as described therein by extraction with 67% acetic acid, dilution 33-fold with water, dialysis against water and then against a “refolding buffer” consisting of 20 mM MES, 1 mM dithiothreitol and 10% glycerol. Protease was stored as a stock preparation at 10 uM in refolding buffer.
Substrate: Peptide of sequence: aminobenzoyl-Ala-Thr-His-Gln-Val-Tyr-Phe(NO2)-Val-Arg-Lys-Ala containing p-nitrophenylalanine, was prepared by solid phase synthesis as previously described Cheng et al., op.cit. Stock solutions of 2 mM substrate were prepared in DMSO.
Inhibitory compounds were dissolved in sufficient DMSO to make 3 mM stock solutions. All further dilutions were prepared in “assay buffer”: 1M NaCl, 50 mM MES, pH 5.5, 1 mM EDTA, 1 mM DTT, […] glycerol.
Enzyme reaction: In a 2 ml screw-cap centrifuge tube were added 50 ul protease (final concentration 0.25 nM) and 0.1 ml inhibitory compound (final concentration […]). After 15 min preincubation at room temperature, the reaction was started with the addition of 0.05 ml substrate (final concentration 5 uM). Incubation was carried out at 30 C. for 1 hr. The reaction was stopped with 1 ml 0.1M ammonium hydroxide.
HPLC measurement of product formation: The product (aminobenzoyl-Ala-Thr-His-Gln-Val-Tyr) was separated from substrate on a Pharmacia MonoQ anion exchange column. The injection volume was 0.2 ml. The mobile phases were: A (20 mM trisHCl, pH 9.0, 0.02% sodium Azide, 10% acetonitrile), B (20 mM tris HCl, pH 9.0, 0.02% sodium azide, 0.5M ammonium formate, 10% acetonitrile). The mobile phases were pumped at 1 ml/min, with a gradient from 0 to 30% B in 5 min, 100% B for 4 min to wash the column, and a re-equilibration for 4 min. The retention time of the product was 3.6 min. Detection with a Shimadzu model RF535 fluorescence monitor was at 330 nm (excitation) and 430 (emission).

HIV-1 (RF) in MT-2 cells = assay: microbe, parasite or virus in culture; format: cell-based
Procedure: DNA Plasmids and in vitro RNA transcripts:
Plasmid pDAB 72 containing both gag and pol sequences of BH10 (bp 113-1816) cloned into PTZ 19R was prepared according to Erickson-Viitanen et al. AIDS Research and Human Retroviruses 1989, 5, 577. The plasmid was linearized with Bam HI prior to the generation of in vitro RNA transcripts using the Riboprobe Gemini system II kit (Promega) with T7 RNA polymerase. Synthesized RNA was purified by treatment with RNase free DNAse (Promega), phenol-chloroform extraction, and ethanol precipitation. RNA transcripts were dissolved in water, and stored at −70° C. The concentration of RNA was determined from the A260.
Biotinylated capture probes were purified by HPLC after synthesis on an Applied Biosystems (Foster City, Calif.) DNA synthesizer by addition of biotin to the 5′ terminal end of the oligonucleotide, using the biotin-phosphoramidite reagent of Cocuzza, Tet. Lett. 1989, 30, 6287. The gag biotinylated capture probe (5-biotin-[…] 3′) was complementary to nucleotides 889-912 of HXB2 and the pol biotinylated capture probe (5′-biotin-[…] 3′) was complementary to nucleotides 2374-2395 of HXB2. Alkaline phosphatase conjugated oligonucleotides used as reporter probes were prepared by Syngene (San Diego, Calif.). The pol reporter probe (5′ […] 3′) was complementary to nucleotides 2403-2425 of HXB2. The gag reporter probe (5′ […] 3′) was complementary to nucleotides 950-973 of HXB2. All nucleotide positions are those of the GenBank Genetic Sequence Data Bank as accessed through the Genetics Computer Group Sequence Analysis Software Package (Devereau Nucleic Acids Research 1984, 12, 387). The reporter probes were prepared as 0.5μM stocks in 2× SSC (0.3M NaCl, 0.03M sodium citrate), 0.05M Tris pH 8.8, 1 mg/mL BSA. The biotinylated capture probes were prepared as 10 μM stocks in water.
Streptavidin coated plates:
Nunc-immunomodule microtiter plate strips were coated by addition of 200 μL of streptavidin (30 ug/mL, Scripps, La Jolla, Calif.) in freshly prepared 10 mM sodium carbonate (pH 9.6). Plates were incubated overnight at 4° C. Streptavidin solution was aspirated from the wells and a blocking buffer composed of phosphate buffered saline (PBS), 20 mg/mL bovine serum albumin (crystalline, nuclease and protease free, Calbiochem) and 100 mg/mL lactose (Sigma) was added to the plates for 3 hrs at room temperature. Blocking buffer was removed from the wells, which were allowed to dry overnight at room temperature and subsequently stored at 4° C. in zip lock bags with desiccant. For the majority of the compound evaluation experiments, streptavidin coated plates were obtained from Du Pont Biotechnology Systems (Boston, Mass.).
MT-2, CEM, and H9 cells were maintained in RPMI 1640 supplemented with 5% fetal calf serum (FCS), 2 mM L-glutamine and 50 μg/mL gentamycin, all from Gibco. Laboratory strains of HIV-1 (RF, MN and IIIB) were propagated in H9 cells in the same medium. Virus stocks were prepared approximately 1 month after acute infection of H9 cells by clarification of the tissue culture medium and storage of aliquots at −70° C. […] Each aliquot of virus stock used for infection was thawed only once. In some cases, infected H9 cells were shifted to Dulbecco's modified Eagle's medium 3-10 days before collection of virus in order to generate virus stocks in medium with low biotin content. Clinical isolates of HIV that had been passaged once in MT-2 cells were used to infect fresh MT-2 cells in RPMI medium. Three days after infection, cells were pelleted, resuspended and culture continued in Dulbecco's modified Eagle's medium as above. Virus stocks of clinical isolates were prepaid 10-15 days after infection when cytopathic effects were apparent in the culture.

[2] = Table 2d, HIV protease inhibition, HPLC method, read-out: HPLC K1

Compound `C=CC(=C)CN1C(=O)N(CC(=C)C=C)C(Cc2ccccc2)C(O)C(O)C1Cc1ccccc1` (stereo not drawn) [Example 15FX] has a Ki ([1]; read-out: HPLC K1, HIV protease inhibition, HPLC method, Table 2d) of 10 to 1000 nM.
Work on `CNC(=O)OCCCCCCN1C(=O)N(CCCCCCOC(C)=O)C(Cc2ccccc2)C(O)C(O)C1Cc1ccccc1` (stereo not drawn) [Example 12X] yielded an IC90 (HIV-1 (RF) in MT-2 cells; Human immunodeficiency virus 1, MT2, 48 h, Table 2d, class symbols, read-out: IC90) of less than 10 µg/mL.
With `O=C1N(Cc2ccc3ccccc3c2)C(CCc2ccccc2)[C@@H](O)[C@@H](Cc2ccccc2)N1Cc1ccc2ccccc2c1` (stereo partly drawn) [Example 8G] the IC90 (HIV-1 (RF) in MT-2 cells; Human immunodeficiency virus 1, MT2, Table 1e, read-out: IC90) was greater than 50 µg/mL.
`O=C1N(Cc2ccc3nnn(O)c3c2)C(Cc2ccccc2)C(O)C(O)C(Cc2ccccc2)N1Cc1ccc2nnn(O)c2c1` (stereo not drawn) [15CU] was tested, and the Ki [1, 2] was 10 to 1000 nM.
`CCC(CC)CC1C(O)C(O)C(CC(CC)CC)N(Cc2ccccc2)C(=O)N1Cc1ccccc1` (stereo not drawn) [Example 16AM] showed a Ki ([1]; Table 2e, read-out: K4 HPLC) of 10 to 1000 nM.
For `C=CCN1C(=O)N(CC=C)C(CC(C)C)C(O)C(O)C1CC(C)C` (stereo not drawn) [Example 16I], the Ki ([1]; read-out: K4 HPLC, Table 2e) was less than 10 nM.
Compound `O=C1N(Cc2cccc(O)c2)C(Cc2ccc(F)cc2)C(O)C(O)C(Cc2ccc(F)cc2)N1Cc1cccc(O)c1` (stereo not drawn) [Example 20G] has a Ki ([1]; read-out: HPLC Ki, Table 2i) of less than 10 nM.
`COC(=O)c1ccc(CN2C(=O)N(Cc3ccc(C(=O)OC)cc3)C(Cc3ccc(OC)cc3)C(O)C(O)C2Cc2ccc(OC)cc2)cc1` (stereo not drawn) [20AI] showed a Ki ([1]; Table 2i, read-out: HPLC Ki) greater than 1000 nM.
`O=C1NC(Cc2ccccc2)C(O)C(O)C(Cc2ccccc2)N1Cc1ccc2[nH]nnc2c1` (stereo not drawn) [15DM] showed a Ki [1, 2] of less than 10 nM.
Work on `O=C1N(CC2CC2)C(Cc2cccs2)C(O)C(O)C(Cc2cccs2)N1CC1CC1` (stereo not drawn) [16O] yielded a Ki ([1]; Table 2e, read-out: K4 HPLC) of less than 10 nM.
In the case of `O=C1N(Cc2ccc(C(F)(F)F)cc2)C(Cc2ccccc2)C(O)C(O)C(Cc2ccccc2)N1Cc1ccc(C(F)(F)F)cc1` (stereo not drawn) [Example 6W], the IC90 (HIV-1 (RF) in MT-2 cells; Human immunodeficiency virus 1, MT2, HIV RNA assay, HIV-1 infected MT-2 cells, class symbols, read-out: IC90) is reported as greater than 100 µg/mL.
For `O=C1NC(Cc2ccccc2)C(O)C(O)C(Cc2ccccc2)N1Cc1ccco1` (stereo not drawn) [Example 15FV], the Ki ([1]; HIV protease inhibition, HPLC method, Table 2d, read-out: HPLC K1) was less than 10 nM.
`O=C1N(Cc2ccc(CO)cc2)[C@H](CCc2ccccc2)[C@@H](O)[C@@H](Cc2ccccc2)N1Cc1ccc(CO)cc1` [Example 8M] gave a Ki ([1]; read-out: Ki (HPLC), Table 1e, cells marked (HPLC)) of less than 10 nM.
`COc1ccccc1CC1C(O)C(O)C(Cc2ccccc2OC)N(Cc2ccccc2)C(=O)N1Cc1ccccc1` (stereo not drawn) [Example 16T] gave a Ki ([1]; Table 2e, read-out: K4 HPLC) of 10 to 1000 nM.
Work on `C=CCN1C(=O)N(CCCC)C(C)C(O)C(O)C1C` (stereo not drawn) [Example 16F] yielded a Ki ([1]; Table 2e, read-out: K4 HPLC) greater than 1000 nM.
`NC(=NO)c1cccc(CN2C(=O)N(Cc3cccc(C(N)=NO)c3)C(Cc3ccccc3)C(O)C2CCc2ccccc2)c1` (stereo not drawn) [Example 8AF] was tested, and the IC90 (HIV-1 (RF) in MT-2 cells; Table 1e) was “+++ (+++=<10 μg/mL)”.
In the case of `COc1ccc(CC2C(O)C(O)C(Cc3ccc(OC)cc3)N(Cc3ccc4ccccc4c3)C(=O)N2Cc2ccc3ccccc3c2)cc1` (stereo not drawn) [20AH], the Ki ([1]; Table 2i, read-out: HPLC Ki) is reported as less than 10 nM.
`C=CCCC1C(O)C(O)C(CCC=C)N(CC=C)C(=O)N1CC=C` (stereo not drawn) [Example 16AS] was tested, and the Ki ([1]; Table 2e, read-out: K4 HPLC) was greater than 1000 nM.
